Key:
Type in all cases: in vivo
S1P1R = target: T1, S1P1R (Mus musculus, UniProt O08530); assay: S1P1R cell surface expression on splenic CD4+ T cells by flow cytometry; conditions: NZBWF1 mice, splenocytes at termination; 0.3, 1.0, 3.0 mg/kg PO QD
T1 construct: from tissue; host or cells: spleen
Source text: S1P1R is expressed on T and B lymphocytes and is the target for modulation by compound 5. Following agonism of the receptor by compound 5, the receptor is internalized and degraded. To determine whether internalization is occurring in T cells following compound dosing in vivo, both naïve and activated CD4+ T cells were examined for cell surface expression of S1P1R. At termination, spleens were harvested and splenocytes isolated and analyzed for immune cell populations by antibody staining and flow cytometry. S1P1R expression was measured on both activated CD4+ T cells (CD3+CD4+CD44+CD62L−) and naïve T cells (CD3+CD4+CD44−CD62L+).

NZBWF1 mice = assay: Tertiary Lymphatic Tissue (TLT) scoring in kidney histology
Source text: To directly assay disease progression, left kidney histology was observed and sections were stained using H&E (left kidney fixed in 4% PFA prior to staining for infiltrating PMN, lymphocytes, and TLTs) or PAS (for analysis of glomerular glycogen and glycoproteins). No neutrophils were observed. The number of aggregates was counted per section.

IFNAR1 = IFNAR1 expression in splenic pDC cells; conditions: NZBWF1 mice, at termination, after five months of treatment
Description: As discussed above, IFNAR1 (Interferon alpha receptor 1) and its ligand IFNα are important modulators of lupus-associated autoimmune response in humans. Serum IFNα was measured by ELISA (eBioscience kit) at 23, 29, 36, and 42 weeks (FIG. 17). Assay sensitivity was 7.48 pg/ml (dotted line). […] However, several samples at multiple time points were below the sensitivity of the assay (data not shown), consistent with reports that the NZBWF1 model has a weak IFNα signature. To determine whether compound 148 affected IFNAR1 expression, percent surface expression and MFI expression were measured in pDC cells at termination (FIGS. 18A and 18B, respectively).

T1 sequence (O08530 whole entry): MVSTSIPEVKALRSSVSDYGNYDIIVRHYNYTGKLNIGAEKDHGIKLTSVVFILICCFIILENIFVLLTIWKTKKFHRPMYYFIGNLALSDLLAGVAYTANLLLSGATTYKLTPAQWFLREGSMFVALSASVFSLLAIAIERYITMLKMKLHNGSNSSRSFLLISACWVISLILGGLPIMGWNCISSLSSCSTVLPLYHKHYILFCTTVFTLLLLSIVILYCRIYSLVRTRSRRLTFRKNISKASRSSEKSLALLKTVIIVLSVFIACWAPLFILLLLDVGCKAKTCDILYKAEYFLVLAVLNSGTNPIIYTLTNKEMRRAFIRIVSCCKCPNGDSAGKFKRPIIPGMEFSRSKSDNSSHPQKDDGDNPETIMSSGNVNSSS

Compound	S1P1R expression on activated CD4+ T cells (CD3+CD4+CD44+CD62L−) (S1P1R)	S1P1R expression on naïve CD4+ T cells (CD3+CD4+CD44−CD62L+) (S1P1R)	Kidney TLT scores compared to naïve mice (NZBWF1 mice; 1.0 mg/kg or 3.0 mg/kg PO QD)	Kidney TLT scores relative to vehicle (NZBWF1 mice; 0.3, 1.0, 3.0 mg/kg PO QD, p<0.05, lesser degree than cyclophosphamide)	MFI of IFNAR1 expression in pDC cells (IFNAR1)	Percent surface expression of IFNAR1 in pDC cells (IFNAR1)
CC(C)Oc1ccc(-c2nc(-c3cccc4c3CC[C@@H]4NCCO)no2)cc1C#N [compound 5, (S)-5-(3-(1-(2-hydroxyethylamino)-2,3-dihydro-1H-inden-4-yl)-1,2,4-oxadiazol-5-yl)-2-isopropoxy benzonitrile]	reduced in a dose-dependent manner	reduced in a dose-dependent manner	–	–	–	–
CC(C)Oc1ccc(-c2nc(-c3cccc4c3CC[C@@H]4N)no2)cc1C#N [compound 148, (S)-5-(3-(1-amino-2,3-dihydro-1H-inden-4-yl)-1,2,4-oxadiazol-5-yl)-2-isopropoxy-benzonitrile]	–	–	TLT scores similar to naïve mice	significantly reduced TLT scores relative to vehicle	very little difference between the groups	very little difference between the groups

From patent US11278526B2, “Compounds and methods for treating lupus” (RECEPTOS LLC, priority 2016, dated 2022)
